Starred links: 1 amine or outer side, 2 acyl side, 3 side chain; linkers in the order of their positions; H or OH if unused. Non-standard residues stand in square brackets, D forms with d. Residues, ends and D or L forms follow the SMILES beside them. Groups on a side chain read outwards from the residue. *: point of attachment. C18 diacid = O=C(O)CCCCCCCCCCCCCCCCC(=O)*; γGlu = O=C(O)[C@H](CCC(=O)[*:2])N[*:1]; αMeF = C[C@](N)(Cc1ccccc1)C(=O)O; AEEA = NCCOCCOCC(=O)O; Aib = CC(C)(N)C(=O)O
What was measured:
[1] = molecular target: human GLP-1 receptor (hGLP-1R) (Homo sapiens, UniProt P43220); assay: cAMP production (HTRF) in CHO cells expressing hGLP-1R; format: cell-based; set-up: expressed in transfected cells; settings: for EC50: Table 6, peptides modified at position 17, cAMP in CHO hGLP-1R cells, geometric mean, read-out: hGLP-1R EC50; for % Relative Potency Ratio: Table 6, % GLP-1R activity relative to GLP-1 / % GlucR activity relative to glucagon
Procedure, shortened: (§1)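 Read-out: HTRF cAMP (anti-cAMP cryptate donor, cAMP-d2 acceptor in conjugate/lysis buffer), converted to % Delta F and fitted by 4-parameter logistic for EC50. Cell densities were 1×10^5 cells/mL (hGLP-1R) or 2×10^5 cells/mL (hGCGR). Stimulation lasted 30 min at room temperature.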

[2] = molecular target: human glucagon receptor (hGCGR) (Homo sapiens, UniProt P47871); assay: cAMP production (HTRF) in CHO cells expressing hGCGR; format: cell-based; set-up: expressed in transfected cells; settings: Table 6, peptides modified at position 17; cAMP in CHO hGCGR cells; geometric mean; read-out: hGluc-R EC50
Procedure, shortened: as §1

Chain of human glucagon receptor (hGCGR) (P47871 26-477): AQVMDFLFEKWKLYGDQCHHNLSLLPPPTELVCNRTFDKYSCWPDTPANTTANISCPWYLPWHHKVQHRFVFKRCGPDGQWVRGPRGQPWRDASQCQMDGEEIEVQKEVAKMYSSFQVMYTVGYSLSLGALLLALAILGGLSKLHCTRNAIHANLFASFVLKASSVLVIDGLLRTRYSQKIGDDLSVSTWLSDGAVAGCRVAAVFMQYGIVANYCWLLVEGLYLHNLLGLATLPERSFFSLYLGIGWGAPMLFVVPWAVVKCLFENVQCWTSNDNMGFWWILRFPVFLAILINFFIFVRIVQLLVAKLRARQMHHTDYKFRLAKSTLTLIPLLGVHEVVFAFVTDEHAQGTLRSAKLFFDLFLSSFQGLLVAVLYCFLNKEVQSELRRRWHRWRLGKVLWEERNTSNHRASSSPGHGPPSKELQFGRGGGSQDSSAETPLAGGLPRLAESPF
Chain of human GLP-1 receptor (hGLP-1R) (P43220 24-463): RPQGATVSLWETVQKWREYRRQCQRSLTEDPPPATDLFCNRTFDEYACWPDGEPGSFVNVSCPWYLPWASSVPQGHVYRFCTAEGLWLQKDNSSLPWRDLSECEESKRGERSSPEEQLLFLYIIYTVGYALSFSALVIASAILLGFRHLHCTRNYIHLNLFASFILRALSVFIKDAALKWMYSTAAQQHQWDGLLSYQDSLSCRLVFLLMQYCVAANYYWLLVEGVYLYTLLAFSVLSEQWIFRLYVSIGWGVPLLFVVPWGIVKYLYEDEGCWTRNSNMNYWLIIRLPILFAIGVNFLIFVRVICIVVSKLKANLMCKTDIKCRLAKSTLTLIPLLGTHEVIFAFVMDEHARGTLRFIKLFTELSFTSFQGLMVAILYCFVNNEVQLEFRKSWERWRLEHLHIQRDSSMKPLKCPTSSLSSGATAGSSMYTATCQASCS

Row | SMILES | EC50 [1] [nM] | % Relative Potency Ratio [1] | EC50 [2] [nM]
1 | CC(C)C[C@H](NC(=O)[C@H](Cc1c[nH]c2ccccc12)NC(=O)[C@H](CCC(N)=O)NC(=O)[C@@H](NC(=O)[C@H](Cc1ccccc1)NC(=O)[C@H](CC(=O)O)NC(=O)[C@H](CCCNC(=N)N)NC(=O)[C@H](C)NC(=O)[C@H](CCCNC(=N)N)NC(=O)[C@H](CCCCNC(=O)COCCOCCNC(=O)COCCOCCNC(=O)CC[C@H](NC(=O)CCCCCCCCCCCCCCCCC(=O)O)C(=O)O)NC(=O)[C@H](CO)NC(=O)[C@H](CC(=O)O)NC(=O)[C@H](CC(C)C)NC(=O)[C@](C)(Cc1ccccc1)NC(=O)[C@H](CCCCN)NC(=O)[C@H](CO)NC(=O)[C@@H](NC(=O)[C@H](CC(=O)O)NC(=O)[C@H](CO)NC(=O)[C@@H](NC(=O)[C@H](Cc1ccccc1)NC(=O)[C@@H](NC(=O)CNC(=O)[C@H](CCC(N)=O)NC(=O)C(C)(C)NC(=O)[C@@H](N)Cc1c[nH]cn1)[C@@H](C)O)[C@@H](C)O)C(C)C)C(C)C)C(=O)N[C@@H](CC(C)C)C(=O)N[C@@H](CCC(=O)O)C(=O)NC(C)(C)C(=O)NCC(=O)O [Peptide 143] (H-H[Aib]QGTFTSDVSK[αMeF]LDSK([AEEA-AEEA-γGlu-C18 diacid])RARDFVQWLLE[Aib]G-OH; N-terminus assumed) | 0.0191 | 3.4 | 0.0326
2 | CC[C@H](C)[C@H](NC(=O)CNC(=O)[C@H](CCCNC(=N)N)NC(=O)[C@H](CO)NC(=O)[C@H](C)NC(=O)[C@H](CC(C)C)NC(=O)[C@H](Cc1c[nH]c2ccccc12)NC(=O)[C@H](CCCNC(=N)N)NC(=O)[C@@H](NC(=O)[C@H](Cc1ccccc1)NC(=O)[C@H](CC(=O)O)NC(=O)[C@H](CCC(N)=O)NC(=O)[C@H](C)NC(=O)[C@H](CCCNC(=N)N)NC(=O)[C@H](CCCCNC(=O)COCCOCCNC(=O)COCCOCCNC(=O)CC[C@H](NC(=O)CCCCCCCCCCCCCCCCC(=O)O)C(=O)O)NC(=O)[C@H](CO)NC(=O)[C@H](CC(=O)O)NC(=O)[C@H](CC(C)C)NC(=O)[C@](C)(Cc1ccccc1)NC(=O)[C@H](CCCCN)NC(=O)[C@H](CO)NC(=O)[C@@H](NC(=O)[C@H](CC(=O)O)NC(=O)[C@H](CO)NC(=O)[C@@H](NC(=O)[C@H](Cc1ccccc1)NC(=O)[C@@H](NC(=O)CNC(=O)[C@H](CCC(N)=O)NC(=O)C(C)(C)NC(=O)[C@@H](N)Cc1c[nH]cn1)[C@@H](C)O)[C@@H](C)O)C(C)C)C(C)C)C(=O)O [Peptide 145] (H-H[Aib]QGTFTSDVSK[αMeF]LDSK([AEEA-AEEA-γGlu-C18 diacid])RAQDFVRWLASRGI-OH) | 0.0226 | 401.2 | 4.59
3 | CC(C)C[C@H](NC(=O)[C@H](Cc1c[nH]c2ccccc12)NC(=O)[C@H](CCCNC(=N)N)NC(=O)[C@@H](NC(=O)[C@H](Cc1ccccc1)NC(=O)[C@H](CC(=O)O)NC(=O)[C@H](CCC(N)=O)NC(=O)[C@H](C)NC(=O)[C@H](CCCNC(=N)N)NC(=O)[C@H](CCCCNC(=O)COCCOCCNC(=O)COCCOCCNC(=O)CC[C@H](NC(=O)CCCCCCCCCCCCCCCCC(=O)O)C(=O)O)NC(=O)[C@H](CO)NC(=O)[C@H](CC(=O)O)NC(=O)[C@H](CC(C)C)NC(=O)[C@](C)(Cc1ccccc1)NC(=O)[C@H](CCCCN)NC(=O)[C@H](CO)NC(=O)[C@@H](NC(=O)[C@H](CC(=O)O)NC(=O)[C@H](CO)NC(=O)[C@@H](NC(=O)[C@H](Cc1ccccc1)NC(=O)[C@@H](NC(=O)CNC(=O)[C@H](CCC(N)=O)NC(=O)C(C)(C)NC(=O)[C@@H](N)Cc1c[nH]cn1)[C@@H](C)O)[C@@H](C)O)C(C)C)C(C)C)C(=O)N[C@@H](C)C(=O)N[C@@H](CO)C(=O)N[C@@H](CCCNC(=N)N)C(=O)O [Peptide 146] (H-H[Aib]QGTFTSDVSK[αMeF]LDSK([AEEA-AEEA-γGlu-C18 diacid])RAQDFVRWLASR-OH; N-terminus assumed) | 0.0246 | 131.3 | 1.63
4 | CC(C)C[C@H](NC(=O)[C@H](Cc1c[nH]c2ccccc12)NC(=O)[C@H](CCCNC(=N)N)NC(=O)[C@@H](NC(=O)[C@H](Cc1ccccc1)NC(=O)[C@H](CC(=O)O)NC(=O)[C@H](CCC(N)=O)NC(=O)[C@H](C)NC(=O)[C@H](CCCNC(=N)N)NC(=O)[C@H](CCCCNC(=O)COCCOCCNC(=O)COCCOCCNC(=O)CC[C@H](NC(=O)CCCCCCCCCCCCCCCCC(=O)O)C(=O)O)NC(=O)[C@H](CO)NC(=O)[C@H](CC(=O)O)NC(=O)[C@H](CC(C)C)NC(=O)[C@](C)(Cc1ccccc1)NC(=O)[C@H](CCCCN)NC(=O)[C@H](CO)NC(=O)[C@@H](NC(=O)[C@H](CC(=O)O)NC(=O)[C@H](CO)NC(=O)[C@@H](NC(=O)[C@H](Cc1ccccc1)NC(=O)[C@@H](NC(=O)CNC(=O)[C@H](CCC(N)=O)NC(=O)C(C)(C)NC(=O)[C@@H](N)Cc1c[nH]cn1)[C@@H](C)O)[C@@H](C)O)C(C)C)C(C)C)C(=O)N[C@@H](CCC(=O)O)C(=O)N[C@@H](C)C(=O)NC(C)(C)C(=O)NCC(=O)O [Peptide 147] (H-H[Aib]QGTFTSDVSK[αMeF]LDSK([AEEA-AEEA-γGlu-C18 diacid])RAQDFVRWLEA[Aib]G-OH; N-terminus assumed) | 0.0153 | 5.6 | 0.0435
5 | CC[C@H](C)[C@H](NC(=O)[C@H](Cc1c[nH]c2ccccc12)NC(=O)[C@H](CCCNC(=N)N)NC(=O)[C@@H](NC(=O)[C@H](Cc1ccccc1)NC(=O)[C@H](CC(=O)O)NC(=O)[C@H](CCC(N)=O)NC(=O)[C@H](C)NC(=O)[C@H](CCCNC(=N)N)NC(=O)[C@H](CCCCNC(=O)COCCOCCNC(=O)COCCOCCNC(=O)CC[C@H](NC(=O)CCCCCCCCCCCCCCCCC(=O)O)C(=O)O)NC(=O)[C@H](CO)NC(=O)[C@H](CC(=O)O)NC(=O)[C@H](CC(C)C)NC(=O)[C@](C)(Cc1ccccc1)NC(=O)[C@H](CCCCN)NC(=O)[C@H](CO)NC(=O)[C@@H](NC(=O)[C@H](CC(=O)O)NC(=O)[C@H](CO)NC(=O)[C@@H](NC(=O)[C@H](Cc1ccccc1)NC(=O)[C@@H](NC(=O)CNC(=O)[C@H](CCC(N)=O)NC(=O)C(C)(C)NC(=O)[C@@H](N)Cc1c[nH]cn1)[C@@H](C)O)[C@@H](C)O)C(C)C)C(C)C)C(=O)N[C@@H](C)C(=O)N[C@@H](CCC(=O)O)C(=O)NC(C)(C)C(=O)NCC(=O)O [Peptide 148] (H-H[Aib]QGTFTSDVSK[αMeF]LDSK([AEEA-AEEA-γGlu-C18 diacid])RAQDFVRWIAE[Aib]G-OH; N-terminus assumed) | 0.0402 | 27.9 | 0.568

Now from value to compound:

Row | EC50 [1] [nM] | % Relative Potency Ratio [1] | EC50 [2] [nM] | SMILES
6 | 0.00871 | 602.8 | 2.65 | CC(C)C[C@H](NC(=O)[C@](C)(Cc1ccccc1)NC(=O)[C@H](CCCCN)NC(=O)[C@H](CO)NC(=O)[C@@H](NC(=O)[C@H](CC(=O)O)NC(=O)[C@H](CO)NC(=O)[C@@H](NC(=O)[C@H](Cc1ccccc1)NC(=O)[C@@H](NC(=O)CNC(=O)[C@H](CCC(N)=O)NC(=O)C(C)(C)NC(=O)[C@@H](N)Cc1c[nH]cn1)[C@@H](C)O)[C@@H](C)O)C(C)C)C(=O)N[C@@H](CC(=O)O)C(=O)N[C@@H](CO)C(=O)N[C@@H](CCCCNC(=O)COCCOCCNC(=O)COCCOCCNC(=O)CC[C@H](NC(=O)CCCCCCCCCCCCCCCCC(=O)O)C(=O)O)C(=O)N[C@@H](CCCNC(=N)N)C(=O)N[C@@H](C)C(=O)N[C@@H](CCC(N)=O)C(=O)N[C@@H](CC(=O)O)C(=O)N[C@@H](Cc1ccccc1)C(=O)N[C@H](C(=O)N[C@@H](CCCNC(=N)N)C(=O)N[C@@H](Cc1c[nH]c2ccccc12)C(=O)N[C@H](C(=O)N[C@H](C(=O)N[C@@H](CCC(=O)O)C(=O)NC(C)(C)C(=O)NCC(=O)O)C(C)C)C(C)C)C(C)C [Peptide 149] (H-H[Aib]QGTFTSDVSK[αMeF]LDSK([AEEA-AEEA-γGlu-C18 diacid])RAQDFVRWVVE[Aib]G-OH; N-terminus assumed)
7 | 0.166 | 4.2 | 0.355 | CC(C)C[C@H](NC(=O)[C@H](Cc1c[nH]c2ccccc12)NC(=O)[C@H](CCC(N)=O)NC(=O)[C@@H](NC(=O)[C@H](Cc1ccccc1)NC(=O)[C@H](CC(=O)O)NC(=O)[C@H](CCC(N)=O)NC(=O)[C@H](C)NC(=O)[C@H](CCCNC(=N)N)NC(=O)[C@H](CCCCNC(=O)COCCOCCNC(=O)COCCOCCNC(=O)CC[C@H](NC(=O)CCCCCCCCCCCCCCCCC(=O)O)C(=O)O)NC(=O)[C@H](CO)NC(=O)[C@H](CC(=O)O)NC(=O)[C@H](CC(C)C)NC(=O)[C@](C)(Cc1ccccc1)NC(=O)[C@H](CCCCN)NC(=O)[C@H](CO)NC(=O)[C@@H](NC(=O)[C@H](CC(=O)O)NC(=O)[C@H](CO)NC(=O)[C@@H](NC(=O)[C@H](Cc1ccccc1)NC(=O)[C@@H](NC(=O)CNC(=O)[C@H](CCC(N)=O)NC(=O)C(C)(C)NC(=O)[C@@H](N)Cc1c[nH]cn1)[C@@H](C)O)[C@@H](C)O)C(C)C)C(C)C)C(=O)N[C@@H](CC(C)C)C(=O)NC(C)(C)C(=O)N[C@H](C(=O)N[C@@H](CCC(=O)O)C(=O)O)[C@@H](C)O [Peptide 150] (H-H[Aib]QGTFTSDVSK[αMeF]LDSK([AEEA-AEEA-γGlu-C18 diacid])RAQDFVQWLL[Aib]TE-OH; N-terminus assumed)
